The source of these data is patent publication US5480645A, “Hydroxyamines N-acyl derivatives having scavenger activity and useful in acute and chronic pathologies associated with peroxidation and inflammation phenomena” (LifeGroup S.p.A., priority 1992, dated 1996).

Like-named read-outs stand apart in the source and are kept apart here. Where no end group is shown, it is not given here. Some results are limits rather than exact numbers.

One series relates to mast cells. Put plainly: In vivo antidegranulating activity in rat mast cells (substance P induced). On the set-up: species or system Sprague Dawley rats. The settings on record: for inhibition % (mast cells degranulation induced by substance P): s.c. 20 mg/kg, substance P 10^-6 M in auricular pinna, substance P effect taken as 100% degranulation. As to the method:
1. In vivo antidegranulating activity in rat mast cells.
The pharmacological treatment is preceded (20 min. before) by the degranulating stimulus induced by P substance (10^-6 M) injected in the auricular pinna. After 20 minutes from the degranulating stimulus, the animals are sacrificed. Their tissues are then taken (auricular pavilion) for the morphological aspect analysis of the mast cells residing in the connective tissues after fixation and coloration with toluidine blue.
The inhibition level of the mast cells degranulation in the animal tissue treated with the tested compounds in comparison with the animals treated only with the degranulating agent is considered as the parameter of the biological activity.
*the inhibition percentage is calculated considering that the effect of
the substance P is maximum (100% of mast cells degranulation).

For series [1], the system named is rat liver microsomes (membrane phospholipid peroxidation). Put plainly: Antiperoxidative activity on rat liver microsomes, NADPH/Fe+2/ADP induced peroxidation (MDA formation). It is filed as biochemical. The settings on record: for MDA: control 42.5. As to the method:
Before the final resuspension mitochondria ape washed with 0.125M KCl containing 15 mM Hepes/10 mM tris at pH=7.4. Rat liver microsomes are prepared as described by Ernster and Nordenbrand (Ernster, Nordenbrand K. Methods Enzymol. 1967, 10:574-80). […]
b) 20 mM Hepes-Tris buffer pH=7.4, 0.5 mM cumene hydroperoxide in the presence or in the absence of the compounds to be tested. The trials after incubation are interrupted with 1 ml 35% TCA which 30 mg BHT and 1 ml 1% TBA (thiobarbituric acid) have been added to. Subsequently the incubation is carried out for 15' at 90° C. in order to allow the development of the coloured adduct.
(§1) A common oxidation product, malonyldialdehyde (MDA), to the two oxidant systems described in (a) and in (b), is measured.
The formed MDA is evaluated by spectrophotometry at 532 nm and calculated by using a molar extinction coefficient of 156.000 (Buege J. A. and Aust S. D., Methods Enzymol., 52, 302-310, 1978).
The tested compounds are solubilized in the culture medium up to the desired concentrations (see tables 1-3). […]
The antiperoxidase activity is measured as % of inhibition of malonyldialdehyde formation.
(Liver microsomes are a subcellular fraction often used to study metabolism.)

A short description of another series: Solubility. It is filed as physicochemical. The settings on record: for solubility: organic solvent or mixture, read-out: solubility in org. solv.
Series [2] deals with granular cerebellar cells. Kind of series: Protection against 2 mM glutamate cytotoxicity in immature granular cerebellar cell cultures. Conditions: Mus musculus, 24 h, read-out: % Cellular survival.
Experimental: The tested compounds are solubilized in DMSO at a concentration of from 1 to 100 μM.
The test system of another series is C6 glioma cells. Put plainly: Protection against 5 mM glutamate cytotoxicity in glioma C6 cultures. The settings on record: Rattus norvegicus, C6 glioma, 24 h, read-out: % Cell survival.
The test system of series [3] is rat liver microsomes (membrane phospholipid peroxidation). Put plainly: Antiperoxidative activity on rat liver microsomes, cumene hydroperoxide induced peroxidation (MDA formation). It is filed as biochemical. The settings on record: for peroxidation inhibition / MDA: 0.5 mM cumene hydroperoxyde, Table 3; for MDA: control 12.8. As to the method: b) 20 mM Hepes-Tris buffer pH=7.4, 0.5 mM cumene hydroperoxide in the presence or in the absence of the compounds to be tested. […] Subsequently the incubation is carried out for 15' at 90° C. in order to allow the development of the coloured adduct.
as §1
The tested compounds are solubilized in the culture medium up to the desired concentrations (see tables 1-3).
As peroxidant agent 0.5 mM cumene hydroperoxyde is used. As oxidation index the formation of malonyldialdehyde (MDA) is measured (nmoles/mg protein).

For series [4], the system named is rat cerebellar granular cells. Kind of series: Protection against glutamate neurotoxicity in rat cerebellar granular cell cultures. It is filed as cell-based. As to the method:
Primary cerebellar granular cell cultures are prepared from 8 days old Sprague-Dawly rats. Neurons are grown on 35 mm plates for 7-8 days. […] Glial cells proliferation is prevented by cytosine arabinose-furanoside.
Cells are washed in Locke solution free from Mg^2+ then replated in the conditionned culture medium.
The solution is diluted serially up to 10, 20 and 50 μM. The compounds at the desired concentrations are added to the cells at 37 ° C.; after 15' 50 μM glutamate free from Mg^2+ is added For 15 minutes at 22 ° C.
The cells are then washed 3 times with Locke solution, then added to the original culture medium and maintained at 37 ° C. in 5 % CO2 for 24 hours.
The cellular survival is measured by using a fluorescence microscope.

Setting [5] is: 10 μM, NADPH/Fe+2/ATP, Table 1-A.
Setting [6] is: 20 μM, NADPH/Fe+2/ATP, Table 1-A.
The mark [7] stands for this setting: in vitro, 10 to 50 μM dose/effect relationship for the test compound.

As a reminder, the solubility is the dissolved amount per volume that the medium holds. In the case of `Cc1c(C)c2c(c(C)c1O)CC(CC(=O)NCCO)O2` (centres unmarked) [Example 1, 2-(2,3-dihydro-5-hydroxy-4,6,7-trimethylbenzofuran)-acetic acid 2 hydroxyethylamide], the “inhibition % (mast cells degranulation induced by substance P)” value with mast cells was 19%. In addition, the peroxidation inhibition in series [1] (setting [5]) amounted to 21%; in series [1] (setting [6]), 49%; in series [3] (20 μM), 47%; in series [3] (50 μM), 80%. For the same molecule, the MDA in series [1] (setting [5]) was 33.5 nmoles/mg prot; in series [1] (setting [6]) it was 21.3 nmoles/mg prot; in series [3] (20 μM) it was 6.84 nmoles/mg prot; in series [3] (50 μM) it was 2.5 nmoles/mg prot. Also, the “effect compared with the corresponding acid (in words)” value in series [1] (Tab. 1-A and 3 (NADPH/Fe+2/ADP and cumene peroxide)) is listed as “consistently higher than that of the comparison product namely the corresponding acid”. In series [1] (setting [7]), the “inhibition of the peroxidation induced by NADPH/Fe+2/ADP (in words)” value is reported as “able to inhibit the peroxidation induced by NADPH/Fe^+2 /ADP (a)”. In addition, the solubility in the series “Solubility” (in ethanol, DMSO, chloroform) was greater than 10000 µg/mL. Moreover, in “Solubility”, the water solubility entry is on record as “slightly soluble”. Moreover, the values for the viability at 1 µM (in series [2]; in the series with C6 glioma cells) were 31% and 13%, respectively. Also, the viability at 3 µM stood at 40% in series [2] and 88% in the series on C6 glioma cells. Besides, the viability at 10 µM in series [2] came to 94%; with C6 glioma cells, 89%; in series [4] (Rattus norvegicus, 24 h, 10 μM, against 50 μM glutamate, Table 4, control 100, read-out: cell survival), 33%. Also, the “inhibition of the peroxidation induced by cumene peroxide (in words)” value in series [3] (setting [7]) was “able to inhibit the peroxidation induced by NADPH/Fe^+2 /ADP (a) and by cumene peroxide (b)”. In addition, the viability at 20 µM in series [4] (Rattus norvegicus, 24 h, 20 μM, against 50 μM glutamate, Table 4, control 100, read-out: cell survival) is 50%. Besides, the viability at 50 µM in series [4] (Rattus norvegicus, 24 h, 50 μM, against 50 μM glutamate, Table 4, control 100, read-out: cell survival) came to 85%. In addition, the “protection against glutamate exogenous neurotoxicity (in words)” value in series [4] (dose-effect relationship) was “able to protect against the glutamate exogenous neurotoxicity”.
Take `Cc1c(C)c2c(c(C)c1OC(=O)CCC(=O)NCCO)CCC(C)(CCCC(C)CCCC(C)CCCC(C)C)O2` [Example 2, D-α-tocopherol acid succinate 2-hydroxyethylamide]: the “inhibition % (mast cells degranulation induced by substance P)” value with mast cells is 38.5%. Further, the peroxidation inhibition in series [1] (40 μM, preincubation time 0 minutes, ADP/NADPH/Fe, Table 2) was 1.40%; in series [1] (40 μM, preincubation time 15 minutes, ADP/NADPH/Fe, Table 2), 17.30%; in series [1] (40 μM, preincubation time 30 minutes, ADP/NADPH/Fe, Table 2), 29.50%; in series [1] (40 μM, preincubation time 45 minutes, ADP/NADPH/Fe, Table 2) it was 37.90%; in series [1] (40 μM, preincubation time 60 minutes, ADP/NADPH/Fe, Table 2), 40.90%. Further, the solubility in “Solubility” (in ethanol and chloroform) was greater than 10000 µg/mL. Besides, in the series “Solubility”, the water solubility result was “slightly soluble”. Also, the viability at 10 µM in the series on C6 glioma cells is 10%. For the same molecule, the viability at 30 µM with C6 glioma cells was 80%.
Take “substance P: degranulating stimulus injected in the auricular pinna (RPKPQQFFGLM; ends and bridges not checked; UniProt P20366 58-68, looked up) [reference compound]”: the mast cells degranulation in the series on mast cells (induced by substance P, of the numbered mast cells) is on record as 85-95%.
